Data reported in the supplement of paper PMC10307832.

How the values were obtained:
Assay in all cases: relative viability (nuclei count vs DMSO), 5 days (fraction); higher = more cells survive
[1] = tested on: NCI-H1792
Method in brief: (§1)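 Each reported value is a median over duplicate plates. It expresses relative viability: treated-well nuclei count divided by vehicle-well nuclei count. Lung cancer cell lines in 1536-well plates were dosed by pin tool a day after seeding, alone with one drug or with a fixed anchor-drug dose plus five library-drug doses (not always all listed) in √10 steps, and nuclei were counted after 5 days.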

[2] = tested on: PC-3 [JPC-3]
Method in brief: as §1

[3] = tested on: SK-MES-1
Method in brief: as §1

[4] = tested on: LK-2
Method in brief: as §1

[5] = tested on: NCI-H1944
Method in brief: as §1

[6] = tested on: NCI-H596
Method in brief: as §1

[7] = tested on: COR-L 105
Method in brief: as §1

[8] = tested on: ChaGo-K-1
Method in brief: as §1

[9] = tested on: NCI-H2170
Method in brief: as §1

[10] = tested on: SW 900
Method in brief: as §1

[11] = tested on: H3255
Method in brief: as §1

[12] = tested on: NCI-H520
Method in brief: as §1

[13] = tested on: NCI-H441
Method in brief: as §1

[14] = tested on: HCC-366
Method in brief: as §1

[15] = tested on: NCI-H1975
Method in brief: as §1

[16] = tested on: EMC-BAC-2
Method in brief: as §1

[17] = tested on: NCI-H23
Method in brief: as §1

[18] = tested on: A-427
Method in brief: as §1

[19] = tested on: NCI-H1666
Method in brief: as §1

[20] = tested on: LOU-NH91
Method in brief: as §1

[21] = tested on: EKVX
Method in brief: as §1

[22] = tested on: NCI-H1755
Method in brief: as §1

[23] = tested on: NCI-H1734
Method in brief: as §1

CC(C)Oc1cc(Nc2nc(N[C@@H](C)c3ccc(F)cn3)ncc2Cl)n[nH]1 [AZ23] + CC(=O)Nc1cccc(-n2c(=O)n(C3CC3)c(=O)c3c(Nc4ccc(I)cc4F)n(C)c(=O)c(C)c32)c1 [Trametinib] (partner 0.02 µM)
relative viability ([1]; first compound 0.01 µM): 0.472 | relative viability ([1]; first compound 0.03162 µM): 0.347 | relative viability ([1]; first compound 0.3162 µM): 0.294 | relative viability ([2]; first compound 0.01 µM): 0.612 | relative viability ([2]; first compound 0.03162 µM): 0.787 | relative viability ([2]; first compound 0.3162 µM): 0.735 | relative viability ([3]; first compound 0.03162 µM): 0.578 | relative viability ([3]; first compound 0.3162 µM): 0.59 | relative viability ([4]; first compound 0.01 µM): 0.949 | relative viability ([4]; first compound 0.03162 µM): 0.916 | relative viability ([4]; first compound 0.3162 µM): 0.681 | relative viability ([5]; first compound 0.01 µM): 0.438 | relative viability ([5]; first compound 0.03162 µM): 0.398 | relative viability ([5]; first compound 0.3162 µM): 0.386 | relative viability ([6]; first compound 0.01 µM): 0.739 | relative viability ([6]; first compound 0.03162 µM): 0.779 | relative viability ([6]; first compound 0.3162 µM): 0.783 | relative viability ([7]; first compound 0.01 µM): 0.432 | relative viability ([7]; first compound 0.03162 µM): 0.371 | relative viability ([7]; first compound 0.3162 µM): 0.478 | relative viability ([8]; first compound 0.01 µM): 0.855 | relative viability ([8]; first compound 0.03162 µM): 0.921 | relative viability ([8]; first compound 0.3162 µM): 0.979 | relative viability ([9]; first compound 0.01 µM): 1.14 | relative viability ([9]; first compound 0.03162 µM): 0.953 | relative viability ([9]; first compound 0.3162 µM): 0.994 | relative viability ([10]; first compound 0.01 µM): 1.06 | relative viability ([10]; first compound 0.3162 µM): 0.873 | relative viability ([11]; first compound 0.01 µM): 0.595 | relative viability ([11]; first compound 0.03162 µM): 0.609 | relative viability ([11]; first compound 0.3162 µM): 0.632 | relative viability ([12]; first compound 0.01 µM): 0.853 | relative viability ([12]; first compound 0.03162 µM): 0.707 | relative viability ([12]; first compound 0.3162 µM): 0.587 | relative viability ([13]; first compound 0.01 µM): 0.504 | relative viability ([13]; first compound 0.03162 µM): 0.433 | relative viability ([13]; first compound 0.3162 µM): 0.509 | relative viability ([14]; first compound 0.01 µM): 0.334 | relative viability ([14]; first compound 0.03162 µM): 0.399 | relative viability ([14]; first compound 0.3162 µM): 0.33 | relative viability ([15]; first compound 0.01 µM): 0.387 | relative viability ([15]; first compound 0.03162 µM): 0.495 | relative viability ([15]; first compound 0.3162 µM): 0.302 | relative viability ([16]; first compound 0.01 µM): 0.911 | relative viability ([16]; first compound 0.03162 µM): 0.912 | relative viability ([16]; first compound 0.3162 µM): 0.898 | relative viability ([17]; first compound 0.03162 µM): 0.364 | relative viability ([17]; first compound 0.3162 µM): 0.361 | relative viability ([18]; first compound 0.01 µM): 0.569 | relative viability ([18]; first compound 0.03162 µM): 0.717 | relative viability ([18]; first compound 0.3162 µM): 0.684 | relative viability ([19]; first compound 0.01 µM): 0.804 | relative viability ([19]; first compound 0.03162 µM): 0.847 | relative viability ([19]; first compound 0.3162 µM): 0.903 | relative viability ([20]; first compound 0.01 µM): 0.784 | relative viability ([20]; first compound 0.03162 µM): 0.823 | relative viability ([20]; first compound 0.3162 µM): 0.784 | relative viability ([21]; first compound 0.01 µM): 0.346 | relative viability ([21]; first compound 0.03162 µM): 0.351 | relative viability ([21]; first compound 0.3162 µM): 0.332 | relative viability ([22]; first compound 0.01 µM): 0.828 | relative viability ([22]; first compound 0.03162 µM): 0.774 | relative viability ([22]; first compound 0.3162 µM): 0.708 | relative viability ([23]; first compound 0.01 µM): 0.733 | relative viability ([23]; first compound 0.03162 µM): 0.726 | relative viability ([23]; first compound 0.3162 µM): 0.436

CC(C)Oc1cc(Nc2nc(N[C@@H](C)c3ccc(F)cn3)ncc2Cl)n[nH]1 [AZ23] + Nc1ncn([C@H]2C[C@H](O)[C@@H](CO)O2)c(=O)n1 [Decitabine] (partner 2 µM)
relative viability ([1]; first compound 0.01 µM): 0.462 | relative viability ([1]; first compound 0.03162 µM): 0.549 | relative viability ([1]; first compound 0.3162 µM): 0.48 | relative viability ([2]; first compound 0.01 µM): 0.812 | relative viability ([2]; first compound 0.03162 µM): 0.851 | relative viability ([2]; first compound 0.3162 µM): 0.885 | relative viability ([3]; first compound 0.03162 µM): 0.382 | relative viability ([3]; first compound 0.3162 µM): 0.357 | relative viability ([4]; first compound 0.01 µM): 0.337 | relative viability ([4]; first compound 0.03162 µM): 0.306 | relative viability ([4]; first compound 0.3162 µM): 0.272 | relative viability ([5]; first compound 0.01 µM): 0.456 | relative viability ([5]; first compound 0.03162 µM): 0.46 | relative viability ([5]; first compound 0.3162 µM): 0.433 | relative viability ([6]; first compound 0.01 µM): 1.17 | relative viability ([6]; first compound 0.03162 µM): 1.07 | relative viability ([6]; first compound 0.3162 µM): 0.955 | relative viability ([7]; first compound 0.01 µM): 0.547 | relative viability ([7]; first compound 0.03162 µM): 0.65 | relative viability ([7]; first compound 0.3162 µM): 0.708 | relative viability ([8]; first compound 0.01 µM): 0.567 | relative viability ([8]; first compound 0.03162 µM): 0.512 | relative viability ([8]; first compound 0.3162 µM): 0.519 | relative viability ([9]; first compound 0.01 µM): 0.482 | relative viability ([9]; first compound 0.03162 µM): 0.475 | relative viability ([9]; first compound 0.3162 µM): 0.483 | relative viability ([10]; first compound 0.01 µM): 0.442 | relative viability ([10]; first compound 0.3162 µM): 0.352 | relative viability ([11]; first compound 0.01 µM): 0.496 | relative viability ([11]; first compound 0.03162 µM): 0.634 | relative viability ([11]; first compound 0.3162 µM): 0.613 | relative viability ([12]; first compound 0.01 µM): 0.634 | relative viability ([12]; first compound 0.03162 µM): 0.524 | relative viability ([12]; first compound 0.3162 µM): 0.418 | relative viability ([13]; first compound 0.01 µM): 0.294 | relative viability ([13]; first compound 0.03162 µM): 0.248 | relative viability ([13]; first compound 0.3162 µM): 0.239 | relative viability ([14]; first compound 0.01 µM): 0.319 | relative viability ([14]; first compound 0.03162 µM): 0.373 | relative viability ([14]; first compound 0.3162 µM): 0.333 | relative viability ([15]; first compound 0.01 µM): 0.409 | relative viability ([15]; first compound 0.03162 µM): 0.451 | relative viability ([15]; first compound 0.3162 µM): 0.414 | relative viability ([16]; first compound 0.01 µM): 0.966 | relative viability ([16]; first compound 0.03162 µM): 0.998 | relative viability ([16]; first compound 0.3162 µM): 0.949 | relative viability ([17]; first compound 0.03162 µM): 0.307 | relative viability ([17]; first compound 0.3162 µM): 0.274 | relative viability ([18]; first compound 0.01 µM): 0.508 | relative viability ([18]; first compound 0.03162 µM): 0.558 | relative viability ([18]; first compound 0.3162 µM): 0.591 | relative viability ([19]; first compound 0.01 µM): 0.711 | relative viability ([19]; first compound 0.03162 µM): 0.755 | relative viability ([19]; first compound 0.3162 µM): 0.672 | relative viability ([20]; first compound 0.01 µM): 0.817 | relative viability ([20]; first compound 0.03162 µM): 0.888 | relative viability ([20]; first compound 0.3162 µM): 0.818 | relative viability ([21]; first compound 0.01 µM): 0.395 | relative viability ([21]; first compound 0.03162 µM): 0.365 | relative viability ([21]; first compound 0.3162 µM): 0.345 | relative viability ([22]; first compound 0.01 µM): 0.844 | relative viability ([22]; first compound 0.03162 µM): 0.705 | relative viability ([22]; first compound 0.3162 µM): 0.697 | relative viability ([23]; first compound 0.01 µM): 0.532 | relative viability ([23]; first compound 0.03162 µM): 0.521 | relative viability ([23]; first compound 0.3162 µM): 0.482
